From ChEMBL document CHEMBL3785028 (J Med Chem, 2016)

Legend:
Type in all cases: ADME, organism-based
Conditions in all cases: in vivo
[1] = Half life in rat at 2 mg/kg, po
[2] = AUC(0 to infinity) in mouse at 30 mg/kg, po; set-up: dose 30 mg/kg, route oral, time infinity
[3] = Oral bioavailability in rat at 2 mg/kg
[4] = Clearance in rat at 1 mg/kg, iv
[5] = Volume of distribution in rat at 1 mg/kg, iv
[6] = Half life in mouse at 30 mg/kg, po
[7] = Half life in rat at 1 mg/kg, iv
[8] = AUC in rat at 2 mg/kg, po
[9] = Cmax in rat at 2 mg/kg, po; set-up: dose 2 mg/kg, route oral

Row | half-life [1] | AUC(0-inf) [2] | bioavailability [3] | clearance [4] | Vd [5] | half-life [6] | half-life [7] | AUC [8] | Cmax [9] | SMILES
1 | 114 min | 2000 ng·h/mL | 75% | 57 mL/min/kg | 2.2 L/kg | 90 min | 51 min | – | – | CN1C(=O)[C@@H](NC(=O)c2cc(Cc3ccccc3)on2)CNc2ccccc21
2 | 174 min | – | – | – | – | – | – | 2200 ng·h/mL | 810 ng/mL | O=C(N[C@H]1COc2ccccc2NC1=O)c1cc(Cc2ccccc2)on1
